Experimental data: patent publication US6982362B1, “α-tocopherol transport protein knockout animal” (priority 1999, dated 2006)

Assay: Plasma α-tocopherol levels in mice fed with α-tocopherol (HPLC)
Format: in vivo, mouse
Settings: fed α-tocopherol 82 μmol/kg from 4 weeks of age, time course FIG. 7
Protocol: Each of the homozygous α-TTP-deficient, heterozygous α-TTP-deficient and wild-type mice was fed with α-tocopherol at a concentration of 82 μmol/kg from 4 weeks of age. All mice were then assayed for their plasma α-tocopherol levels according to the method of Kim, H. S. et al. (Free Rad. Res. 28, 87–92, 1998). More specifically, 50 μl of mouse plasma collected using heparin was diluted with 950 Pl of PBS, mixed with 1 ml of 6% pyrogarol in EtOH, and then allowed to stand at 70° C. for 2 minutes. After addition of 60% KOH (0.2 ml), the mixture was saponified at 70° C. for 30 minutes, vortexed with 5 ml of n-hexane and 2.5 ml of H2O, and then centrifuged to collect the n-hexane layer (4 ml). The layer was evaporated and dissolved in […] of ethanol, followed by HPLC analysis. HPLC was performed under the following conditions: column: IRIKA RP18 (250×4 mm), mobile phase: MeOH/H2O/NaClO4 (1000/2/7, v/v/w), detection: IRIKA Amperometric E-520 detector. Tocol was used as an internal standard.

In the case of Cc1c(C)c2c(c(C)c1O)CC[C@@](C)(CCC[C@H](C)CCC[C@H](C)CCCC(C)C)O2 [α-tocopherol], the “plasma α-tocopherol level as compared with the wild-type mice” value (heterozygous α-TTP-deficient mice) is reported as “about one-half” and the “plasma α-tocopherol level” value (homozygous α-TTP-deficient mice) is reported as “under the detection limit”.
